Reference: ChEMBL document CHEMBL1154264, “Evaluation of the flavonoid oroxylin A as an inhibitor of P-glycoprotein-mediated cellular efflux” (J Nat Prod, 2009)
Calls of active or inactive are those of the source. The rule behind the calls is not given here.

Experiments:
[1] = biological target: T1, ATP-dependent translocase ABCB1 (Homo sapiens, UniProt P08183); assay: Inhibition of P-glycoprotein-mediated drug efflux in human NCI/ADR-RES cells assessed as paclitaxel accumulation after 30 mins by HPLC; assay type: cell-based; conditions: 0.5 h
[2] = system: NCI/ADR-RES; assay: Potentiation of vinblastine-induced cytotoxicity against P-gp expressing human NCI/ADR-RES cells assessed as reduction of vinblastine CC50 at 10 uM after 3 days by MTT assay; assay type: functional
[3] = system: NCI/ADR-RES; assay: Cytotoxicity against human NCI/ADR-RES cells at 10 uM after 3 days by MTT assay; assay type: functional, cell-based
[4] = system: NCI/ADR-RES; assay: Potentiation of paclitaxel-induced cytotoxicity against P-gp expressing human NCI/ADR-RES cells assessed as reduction of paclitaxel CC50 at 10 uM after 3 days by MTT assay; assay type: functional
[5] = biological target: T1, ATP-dependent translocase ABCB1; assay: Inhibition of P-glycoprotein-mediated drug efflux in human NCI/ADR-RES cells assessed as calcein AM accumulation after 30 mins by fluorescence spectrophotometry; assay type: cell-based; conditions: 0.5 h

T1 sequence (P08183 whole entry): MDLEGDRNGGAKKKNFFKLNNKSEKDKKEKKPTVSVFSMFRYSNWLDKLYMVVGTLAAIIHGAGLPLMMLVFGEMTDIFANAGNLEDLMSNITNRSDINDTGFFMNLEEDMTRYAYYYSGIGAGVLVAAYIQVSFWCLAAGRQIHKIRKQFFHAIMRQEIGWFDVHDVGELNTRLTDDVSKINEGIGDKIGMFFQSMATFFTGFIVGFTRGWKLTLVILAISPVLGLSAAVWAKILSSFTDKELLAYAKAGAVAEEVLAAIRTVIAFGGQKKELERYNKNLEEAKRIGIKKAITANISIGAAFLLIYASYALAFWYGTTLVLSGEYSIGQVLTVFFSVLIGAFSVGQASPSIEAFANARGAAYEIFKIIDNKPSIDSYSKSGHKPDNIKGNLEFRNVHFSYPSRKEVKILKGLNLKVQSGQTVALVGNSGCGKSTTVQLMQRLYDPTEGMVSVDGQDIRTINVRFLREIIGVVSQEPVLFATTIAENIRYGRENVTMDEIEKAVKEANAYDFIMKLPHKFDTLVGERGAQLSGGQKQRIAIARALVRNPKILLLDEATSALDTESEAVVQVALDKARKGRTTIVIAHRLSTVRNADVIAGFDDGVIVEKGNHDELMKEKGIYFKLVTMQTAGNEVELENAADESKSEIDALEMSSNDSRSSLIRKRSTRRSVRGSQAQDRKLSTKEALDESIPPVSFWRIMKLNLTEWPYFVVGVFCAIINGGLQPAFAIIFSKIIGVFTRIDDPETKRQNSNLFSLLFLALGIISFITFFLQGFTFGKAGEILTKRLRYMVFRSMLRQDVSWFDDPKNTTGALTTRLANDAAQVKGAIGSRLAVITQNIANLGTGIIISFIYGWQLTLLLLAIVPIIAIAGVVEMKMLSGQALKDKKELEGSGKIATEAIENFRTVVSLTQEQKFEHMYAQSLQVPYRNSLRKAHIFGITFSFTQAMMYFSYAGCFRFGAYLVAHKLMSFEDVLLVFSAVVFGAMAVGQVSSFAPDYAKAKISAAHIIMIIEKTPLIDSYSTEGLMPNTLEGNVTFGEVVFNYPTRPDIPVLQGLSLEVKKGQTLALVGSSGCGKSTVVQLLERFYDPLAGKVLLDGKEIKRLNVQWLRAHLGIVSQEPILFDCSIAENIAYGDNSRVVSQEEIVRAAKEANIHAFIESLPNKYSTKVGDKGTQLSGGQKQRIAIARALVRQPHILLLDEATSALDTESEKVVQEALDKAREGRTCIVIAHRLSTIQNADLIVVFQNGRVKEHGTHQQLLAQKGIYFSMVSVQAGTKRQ

SMILES: COc1c(O)cc2oc(-c3ccccc3)cc(=O)c2c1O [OROXYLIN A]
- inhibition (INH) [1]: Dose-dependent effect
- fold change (FC) [2]: 5
- Activity [3]: inactive
- fold change (FC) [4]: 5
- inhibition (INH) [5]: Dose-dependent effect
